The source of these data is patent US20040137426A1, “Gp41 peptides and methods based thereon for inhibiting HIV fusion to target cells” (priority 2002, published 2004).

Converted amounts (≈) assume the structure as drawn.

For one experiment, the system named is JRFL (R5) pseudovirus. Description: Viral entry, Env pseudovirus with luciferase readout: JRFL. Type of experiment: cell-based, HIV-1. Conditions: from IC50 data of table 3. As for the experimental part:
(§1) In preliminary experiments we tested the panel of peptides for inhibition of HIV-1 infectivity using a single CXCR4-using T cell line-adapted virus isolate: HIV-1IIIB. Serial dilutions of the peptides were added to the target cells immediately followed by virus. After 5-7 days culture, supernatant was tested for viral p24 activity using a sensitive p24 ELISA. […] These viruses carry a luciferase readout and are competent for a single cycle of replication only. We chose to test Env from […] viruses representing: X4 TCLA virus (HXB2); X4 primary isolate (WHO D clade); R5X4 dual tropic primary isolate (W61D) and R5 primary isolates (JRFL and Bal).

Experiment [1] deals with W61D (R5X4 dual tropic primary isolate) pseudovirus. Description: Viral entry, Env pseudovirus with luciferase readout: W61D. In kind it is cell-based, HIV-1. Conditions: for N36E on CCR5+ indicator cells. On the procedure:
as §1

The subject of experiment [2] is HXB2 (X4 TCLA virus) pseudovirus. Description: Viral entry, Env pseudovirus with luciferase readout: HXB2. Type of experiment: cell-based, HIV-1. The note with it: from IC50 data of table 3. On the procedure: as §1
A further experiment concerns HIV-1 pseudovirus. Nature of the experiment: Timing of peptide addition and inhibition of pseudovirus infection. In kind it is cell-based.
Experiment [3] relates to HIV-1. The note with it: for activity compared with the new analogues of T-20, T-21 and DP219: qualitative comparison. As for the experimental part: Peptides were tested in vitro for inhibition of early steps in cell-free HIV-1 infection and direct cell-to-cell spread of virus using T-cell line-adapted and primary isolates and recombinant HIV-1 viruses pseudotyped for env using CCR5, CXCR4 or both coreceptors.
Selected de novo designed peptides according to the invention (S291, N36E, W37Q and W371) and the new analogues of T20, T21 and DP219 were evaluated for inhibition of both cell-free HIV-1 infection and of direct cell-to-cell spread using a range of T-cell line-adapted and primary isolates and recombinant HIV-1 pseudotyped for env derived from patient isolates of different clades.

Experiment [4] has as its system HIV-1. Conditions: for activity compared with T20 and T1249: across clades, Figs 5 and 6; for IC50: read-out: IC50 in hPBMCs, independent assays in hPBMCs (N36E 6, W37Q 5).
Protocol: The peptides were evaluated against two HIV-1 stains IIIB and BR92/92/021. These two stains were selected in part based on their co-receptor utilization preferences; HIV-1 IIIB utilizes the CXCR4 co-receptor whereas HIV-1 BR92 utilizes CCR5. To test anti-HIV efficacy, fresh Human Peripheral Blood Mononuclear Cells (PBMCs) were obtained from single, normal hepatitis and HIV-1 negative donors. The cells were stimulated by a using CD3+method. Drug testing was performed in a 96 well format in triplicate. Each plate contained control wells (cells+virus), experimental wells (drug+cells+virus) and compound control wells (drug+cells, to monitor cytotoxicity). The read-out for viral infectivity after seven days of infection was based on reverse transcriptase activity of cell free supernatant samples. Drug toxicity was determined in the control well by a standard assay using the tetrazolium compound, which was converted in live cells into a colored formazan product that can readily be monitored on the microtiter plate.
PBMCs were stimulated via the CD3 antigen that is part of the T cell receptor. […] The T cell preparation contains about 50% CD4+cells that are susceptible to HIV-1 infection. Therefore no further separation between CD4+ and CD8+cells is necessary.
The data were obtained according to the following protocol:
Pre-incubate diluted peptides (0 to 50 ug/ml) with virus strain
Add 3 day anti-CD3 stimulated human peripheral blood mononuclear cells (50,000/well)
Incubate 37° C. for 6 days in IL-2 containing media
Test cell-free culture supernatants for reverse transcriptase (RT) activity at day 6
Test cells in cultures for toxicity using an MTS (CellTiter96 Reagent Promega) staining for cell viability
All assay results shown were done in triplicate
For a further experiment, the system named is HIV-1 IIIB. In kind it is cell-based. The note with it: lab-adapted HIV-1 IIIB. On the procedure:
Both involved the culture of the virus with the peptide or its scrambled form for 1 hr at 37° C., 5% CO2 and then subsequent addition of target cells for 7 days. Inhibition was assessed using an enzyme-linked immunosorbent assay (ELISA) of viral core protein p24 antigen.

The test system of experiment [5] is WHO isolate Clade D (X4) pseudovirus. Description: Viral entry, Env pseudovirus with luciferase readout: WHO isolate Clade D. The note with it: from IC50 data of table 3. Type of experiment: cell-based, HIV-1. On the procedure:
as §1

Experiment [6] deals with HIV-1 IIIB gp41 (HIV-1 IIIB). Description: cell-based or functional assay.
Experiment [7] concerns HL2/3 cells expressing HIV-1IIIB Env fusing with MAGI-CCR5 cells. In kind it is cell-based. Conditions: MAGI-CCR5 / HL2/3; read-out: IC50 cell fusion assay. As for the experimental part: A second panel of anti-HIV-1 peptides according to the invention was evaluated for using the MAGI-CCR5 antiviral assay and a gene reporter cell fusion assay. MAGI-CCR5 is an HIV-1 indicator cell line derived from HeLa cells that express CD4 and the HIV-1 coreceptors CCR5 and CXCR4. These cells contain a gene reporter cassette of β-galactosidase that is expressed from an HIV-1 LTR. Expression of the reporter gene is dependent on the production of HIV-1 tat that occurs following HIV-1 entry. The read-out for viral infectivity after two days of incubation is measurement of β-galactosidase expression detectable by chemoluminescence. The assay structure in the 96 well format as that used in the PBMC assay. The cell fusion assay uses the same indicator cell line (MAGI-CCR5), which is incubated with a HeLa cell based cell line HL2/3 that expresses HIV-1IIIB Env on its surface and contains Tat and Rev expression cassettes. When HL2/3 cells fuse with the MAGI-CCR5 cells, HIV-1 Tat is delivered into the indicator cells leading to activation of the β-galactosidase gene which is under the control of the HIV-1 LTR. The enzyme activity is read out in a similar fashion by chemoluminescence using the same assay structure as mentioned above. This assay is uniquely sensitive to entry inhibitors. […]

One may read the IC50 as the concentration that gives 50% inhibition. Consider `CC[C@H](C)[C@H](NC(=O)[C@H](CC(C)C)NC(=O)[C@H](CO)NC(=O)[C@H](Cc1ccc(O)cc1)NC(=O)[C@@H](NC(=O)[C@H](CC(C)C)NC(=O)[C@H](CO)NC(=O)[C@@H](NC(=O)[C@H](Cc1ccc(O)cc1)NC(=O)[C@H](CC(N)=O)NC(=O)[C@H](CC(=O)O)NC(=O)[C@@H](NC(=O)[C@H](CCC(=O)O)NC(=O)[C@H](CCCNC(=N)N)NC(=O)[C@H](CCC(=O)O)NC(=O)[C@H](Cc1c[nH]c2ccccc12)NC(=O)[C@H](CCC(=O)O)NC(=O)[C@H](CCSC)NC(=O)[C@H](Cc1c[nH]c2ccccc12)NC(=O)[C@@H](NC(=O)[C@H](CCSC)NC(=O)[C@H](CC(N)=O)NC(=O)[C@@H](N)CC(N)=O)[C@@H](C)O)[C@@H](C)CC)[C@@H](C)O)[C@@H](C)CC)C(=O)N[C@@H](CCC(=O)O)C(=O)N[C@@H](CCC(=O)O)C(=O)N[C@@H](CO)C(=O)N[C@@H](CCC(N)=O)C(=O)N[C@@H](CC(N)=O)C(=O)N[C@@H](CCC(N)=O)C(=O)N[C@@H](CCC(N)=O)C(=O)N[C@@H](CCC(=O)O)C(=O)N[C@@H](CCCCN)C(=O)N[C@@H](CC(N)=O)C(=O)N[C@@H](CCC(=O)O)C(=O)N[C@@H](CCC(N)=O)C(=O)N[C@@H](CCC(=O)O)C(=O)O` [Peptide N36E], for which, in the experiment with JRFL (R5) pseudovirus, the “fold more active than Y36F, JRFL pseudovirus” value is 80 fold. In [1], the “fold more active than Y36F, W61D pseudovirus” value worked out at 18 fold. Also, the “fold more active than Y36F, HXB2 pseudovirus” value in experiment [2] came out at 5 fold. Moreover, the “inhibition, peptide preincubated with target cells then washed prior to addition of virus” value in the experiment with HIV-1 pseudovirus (cells washed before virus) is recorded as “no inhibitory effect”. In addition, the “inhibition, virus preincubated with cells for 1 h prior to addition of peptide” value with HIV-1 pseudovirus (peptide added 1 h after virus and cells) is recorded as “complete absence of inhibition”. The “inhibitory effect, simultaneous mixing of virus, cells and peptide” value in the experiment on HIV-1 pseudovirus (simultaneous addition) was “most pronounced inhibitory effect”. Also, the “inhibition, virus preincubated with peptide 1 h at 37° C. then washed by ultrafiltration prior to addition to cells” value in the experiment on HIV-1 pseudovirus (virus washed before cells) was “weak but poorly reproducible inhibition”. In addition, in the experiment with HIV-1 [3], the “fold more potent than analogues Y36F, K42K and E30E, frequently” value was found to be 10 fold; the “activity compared with the new analogues of T-20, T-21 and DP219” value (“activity compared with the new analogues” below) is recorded as “significantly greater potency”. For the same compound, in the experiment with HIV-1 [4], the “activity compared with T20 and T1249” value was “compare well to both T20 and to T1249”; the IC50 was 2 ± 1 nM.
Regarding `CC[C@H](C)[C@H](NC(=O)[C@H](CCC(=O)O)NC(=O)[C@H](CCCNC(=N)N)NC(=O)[C@H](CCC(=O)O)NC(=O)[C@H](Cc1c[nH]c2ccccc12)NC(=O)[C@H](CCC(=O)O)NC(=O)[C@H](CCSC)NC(=O)[C@H](Cc1c[nH]c2ccccc12)NC(=O)[C@@H](NC(=O)[C@H](CCSC)NC(=O)[C@H](CC(N)=O)NC(=O)[C@H](CC(N)=O)NC(=O)[C@@H](N)Cc1c[nH]c2ccccc12)[C@@H](C)O)C(=O)N[C@@H](CC(=O)O)C(=O)N[C@@H](CC(N)=O)C(=O)N[C@@H](Cc1ccc(O)cc1)C(=O)N[C@H](C(=O)N[C@@H](CO)C(=O)N[C@@H](CC(C)C)C(=O)O)[C@@H](C)O` [Peptide W19L], the “MIC HIV-1IIIB infectivity” value with HIV-1 IIIB was 0.06 µg/mL (≈ 0.0238 µM).
For `CC[C@H](C)[C@H](NC(=O)[C@H](CC(C)C)NC(=O)[C@H](CO)NC(=O)[C@H](Cc1ccc(O)cc1)NC(=O)[C@@H](NC(=O)[C@H](CC(C)C)NC(=O)[C@H](CO)NC(=O)[C@@H](NC(=O)[C@H](Cc1ccc(O)cc1)NC(=O)[C@H](CC(N)=O)NC(=O)[C@H](CC(=O)O)NC(=O)[C@@H](NC(=O)[C@H](CCC(=O)O)NC(=O)[C@H](CCCNC(=N)N)NC(=O)[C@H](CCC(=O)O)NC(=O)[C@H](Cc1c[nH]c2ccccc12)NC(=O)[C@H](CCC(=O)O)NC(=O)[C@H](CCSC)NC(=O)[C@H](Cc1c[nH]c2ccccc12)NC(=O)[C@@H](NC(=O)[C@H](CCSC)NC(=O)[C@H](CC(N)=O)NC(=O)[C@H](CC(N)=O)NC(=O)[C@H](Cc1c[nH]c2ccccc12)NC(=O)[C@@H](NC(=O)[C@H](CCC(N)=O)NC(=O)[C@H](CCC(=O)O)NC(=O)[C@H](CC(C)C)NC(=O)[C@H](CO)NC(=O)[C@H](CCCCN)NC(=O)[C@H](CC(N)=O)NC(=O)[C@H](CO)NC(=O)[C@@H](N)Cc1c[nH]c2ccccc12)[C@@H](C)CC)[C@@H](C)O)[C@@H](C)CC)[C@@H](C)O)[C@@H](C)CC)C(=O)N[C@@H](CCC(=O)O)C(=O)N[C@@H](CCC(=O)O)C(=O)N[C@@H](CO)C(=O)N[C@@H](CCC(N)=O)C(=O)O` [Peptide W37Q], the “fold more active than Y36F, JRFL pseudovirus” value in the experiment on JRFL (R5) pseudovirus is listed as ~15 fold. For the same compound, in [1], the “fold more active than Y36F, W61D pseudovirus” value is given as ~20 fold. The “fold more active than Y36F, WHO D clade pseudovirus” value in experiment [5] is reported as “approximately 22 fold”. Further, in the experiment with HIV-1 [3], the “fold more potent than analogues Y36F, K42K and E30E, frequently” value stood at 10 fold; the “activity compared with the new analogues” value is reported as “significantly greater potency”. In the experiment with HIV-1 [4], the “activity compared with T20 and T1249” value was “compare well to both T20 and to T1249”; the IC50 is 5 ± 2 nM.
With `CC[C@H](C)[C@H](NC(=O)[C@H](CC(C)C)NC(=O)[C@H](CO)NC(=O)[C@H](Cc1ccc(O)cc1)NC(=O)[C@@H](NC(=O)[C@H](CC(C)C)NC(=O)[C@H](CO)NC(=O)[C@@H](NC(=O)[C@H](Cc1ccc(O)cc1)NC(=O)[C@H](CC(N)=O)NC(=O)[C@H](CC(=O)O)NC(=O)[C@@H](NC(=O)[C@H](CCC(=O)O)NC(=O)[C@H](CCCNC(=N)N)NC(=O)[C@H](CCC(=O)O)NC(=O)[C@H](Cc1c[nH]c2ccccc12)NC(=O)[C@@H](N)CCC(=O)O)[C@@H](C)CC)[C@@H](C)O)[C@@H](C)CC)C(=O)N[C@@H](CCC(=O)O)C(=O)N[C@@H](CCC(=O)O)C(=O)N[C@@H](CO)C(=O)N[C@@H](CCC(N)=O)C(=O)N[C@@H](CC(N)=O)C(=O)N[C@@H](CCC(N)=O)C(=O)N[C@@H](CCC(N)=O)C(=O)N[C@@H](CCC(=O)O)C(=O)N[C@@H](CCCCN)C(=O)N[C@@H](CC(N)=O)C(=O)N[C@@H](CCC(=O)O)C(=O)N[C@@H](CCC(N)=O)C(=O)N[C@@H](CCC(=O)O)C(=O)O` [Synthesised DP219, reference compound], in the experiment with HIV-1 IIIB, the “ID50% HIV-1IIIB infectivity” value stood at 6.00 µg/mL (≈ 1.6 µM) and the “ID90 HIV-1IIIB infectivity” value is 12.5 µg/mL (≈ 3.34 µM).
In experiment [6], Recombinant DP178 (peptide) had an ID50%, HIV-1IIIB infectivity of 0.05 µg/mL; an ID90, HIV-1IIIB infectivity of 0.09 µg/mL; an MIC, HIV-1IIIB infectivity of 0.009 µg/mL.
Regarding T20 (peptide), in experiment [6], the IC50, cell fusion assay (MAGI-CCR5 cells with HL2/3 cells expressing HIV-1IIIB Env) came out at 30 nM.
On to “WNASWSNKSLEQIWNNMTWMEWEREIDNYTSLIYSLI [Peptide W37I]”, for which the “activity compared with the new analogues” value in the experiment with HIV-1 [3] is “broadly similar levels of activity”.
As for enfuvirtide, the IC50 in [7] is ~30 nM.
